Experimental findings from US20230265151A1, “GIP/GLP1 CO-AGONIST COMPOUNDS” (priority 2020, published 2023) are described below.

What all share (format): cell-based
The target of one test is hGLP-1R (Homo sapiens, UniProt P43220). In words: Functional cAMP formation (HTRF) in HEK-293 clonal cells expressing hGLP-1R, 0.1% bovine casein, without or with 1.0% human serum albumin. Also on record: expressed in transfected cells. The settings on record: geometric mean, read-out: hGLP-1R EC50, nM (SEM, n). In outline:
(§1)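 Cells were stimulated with peptide for 30 min at 37° C, then intracellular cAMP was measured by competitive HTRF (665/620 nm ratio) and converted to nM using a cAMP standard curve. Relative EC50 and Emax came from four-parameter logistic fits of percent maximal response against peptide concentration.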
For orientation: Changes in cAMP serve as a functional read-out for many G protein-coupled receptors.

The target of the next test is T1, hGCGR (Homo sapiens, UniProt P47871).
T1 construct: expressed in transfected cells
T1 sequence (P47871 26-477): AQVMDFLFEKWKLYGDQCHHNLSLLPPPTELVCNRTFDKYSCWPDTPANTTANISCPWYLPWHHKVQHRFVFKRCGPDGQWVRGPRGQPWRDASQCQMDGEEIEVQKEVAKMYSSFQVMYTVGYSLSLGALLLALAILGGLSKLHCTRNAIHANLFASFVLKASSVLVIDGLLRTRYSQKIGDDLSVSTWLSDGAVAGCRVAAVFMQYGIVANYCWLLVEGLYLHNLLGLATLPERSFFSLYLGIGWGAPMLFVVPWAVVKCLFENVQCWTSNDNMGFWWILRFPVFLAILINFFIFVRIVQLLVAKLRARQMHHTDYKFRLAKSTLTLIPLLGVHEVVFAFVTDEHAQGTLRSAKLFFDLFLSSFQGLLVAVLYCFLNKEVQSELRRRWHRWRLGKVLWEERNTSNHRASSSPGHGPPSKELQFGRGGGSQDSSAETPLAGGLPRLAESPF
In words: Functional cAMP formation (HTRF) in HEK-293 clonal cells expressing hGCGR, 0.1% bovine casein, without or with 1.0% human serum albumin. The settings on record: read-out: hGCGR EC50, nM (SEM, n). In outline:
as §1

The target in a further test is T2, hGIPR (Homo sapiens, UniProt P48546).
T2 construct: expressed in transfected cells
T2 sequence (P48546 22-466): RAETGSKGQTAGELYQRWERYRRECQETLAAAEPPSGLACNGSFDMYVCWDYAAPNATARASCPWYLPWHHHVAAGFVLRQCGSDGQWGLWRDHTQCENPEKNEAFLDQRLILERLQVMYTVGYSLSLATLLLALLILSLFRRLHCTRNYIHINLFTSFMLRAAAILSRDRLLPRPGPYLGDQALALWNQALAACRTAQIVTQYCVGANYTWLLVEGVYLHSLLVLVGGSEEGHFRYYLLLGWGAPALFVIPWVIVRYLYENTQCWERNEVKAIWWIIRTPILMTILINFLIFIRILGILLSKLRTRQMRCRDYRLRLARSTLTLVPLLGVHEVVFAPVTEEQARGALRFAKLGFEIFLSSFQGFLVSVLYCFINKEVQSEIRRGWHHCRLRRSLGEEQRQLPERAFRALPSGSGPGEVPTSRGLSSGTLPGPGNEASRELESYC
As to the kind of experiment: Functional cAMP formation (HTRF) in HEK-293 clonal cells expressing hGIPR, 0.1% bovine casein, without or with 1.0% human serum albumin. The settings on record: for Emax: read-out: hGIPR Emax, % ± SEM; for EC50: read-out: hGIPR EC50, nM (SEM, n). In outline: as §1

Setting [1] is: cAMP, 37° C., 0.1% bovine casein (no human serum albumin).
[2] abbreviates: cAMP, 37° C., 0.1% bovine casein (no human serum albumin), geometric mean.
Setting [3] is: cAMP, 37° C., 0.1% bovine casein and 1.0% human serum albumin, geometric mean (SEM, n).
Setting [4] is: HEK293, cAMP, 37° C., 0.1% bovine casein, percent of maximal response to GIP(1-42)NH2, arithmetic mean.
Where [5] appears, read: cAMP, incubated at 37° C., 0.1% bovine casein (no human serum albumin).
The mark [6] stands for this setting: 0.1% bovine casein and 1.0% human serum albumin, 37° C., geometric mean.
Where [7] appears, read: cAMP, incubated at 37° C., 0.1% bovine casein (no human serum albumin), geometric mean.
Where [8] appears, read: HEK293, 0.1% bovine casein and 1.0% human serum albumin, 37° C., percent of maximal response to GIP(1-42)NH2.
[9] abbreviates: 0.1% bovine casein and 1.0% human serum albumin, 37° C.

Read-outs that look alike come from different tables or passages of the source. *1 amine or outer side, *2 acyl side, *3 side chain or, on linkers, in order; H or OH if unused. Where a SMILES comes first, the peptide text is derived from it. Side-chain parts run from the residue outwards. [ ]: non-standard residue; d: D form. The star is where a group is joined. αMePhe(2-F) = C[C@](N)(Cc1ccccc1F)C(=O)O; γGlu = O=C(O)[C@H](CCC(=O)[*:2])N[*:1]; αMeY = C[C@](N)(Cc1ccc(O)cc1)C(=O)O; αMeL = CC(C)C[C@](C)(N)C(=O)O; Lauroyl = CCCCCCCCCCCC(=O)*; Orn = NCCC[C@H](N)C(=O)O; AEEA = NCCOCCOCC(=O)O; Aib = CC(C)(N)C(=O)O

Chain of hGLP-1R (P43220 24-463): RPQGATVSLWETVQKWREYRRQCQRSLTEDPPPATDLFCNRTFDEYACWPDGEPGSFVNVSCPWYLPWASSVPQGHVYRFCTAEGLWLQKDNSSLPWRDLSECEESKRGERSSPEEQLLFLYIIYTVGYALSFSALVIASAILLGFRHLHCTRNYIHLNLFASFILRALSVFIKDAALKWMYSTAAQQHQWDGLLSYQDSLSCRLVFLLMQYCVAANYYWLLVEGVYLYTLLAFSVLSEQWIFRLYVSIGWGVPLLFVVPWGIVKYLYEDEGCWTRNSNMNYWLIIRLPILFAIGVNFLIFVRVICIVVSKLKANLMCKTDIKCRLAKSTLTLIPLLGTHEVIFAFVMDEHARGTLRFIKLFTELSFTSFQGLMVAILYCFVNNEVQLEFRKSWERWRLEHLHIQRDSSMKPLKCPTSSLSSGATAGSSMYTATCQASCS

A word on the EC50: it is the concentration at which the effect is half-maximal. A word on the Emax: it is the size of the effect at its maximum, as opposed to the concentration needed. For `CC[C@H](C)[C@H](NC(=O)[C@H](CC(C)C)NC(=O)[C@](C)(Cc1ccc(O)cc1)NC(=O)[C@@H](CCC(=O)O)NC(=O)[C@@H](NC(=O)[C@H](Cc1ccccc1)NC(=O)[C@H](CCCCNC(=O)COCCOCCNC(=O)CC[C@H](NC(=O)CCCCCCCCCCCCC(=O)O)C(=O)O)NC(=O)C(C)(C)NC(=O)[C@H](CCC(N)=O)NC(=O)[C@H](C)NC(=O)[C@H](CCCCNC(=O)COCCOCCNC(=O)CC[C@H](NC(=O)CCCCCCCCCCCCC(=O)O)C(=O)O)NC(=O)[C@H](CCCN)NC(=O)[C@H](CC(=O)O)NC(=O)[C@H](CC(C)C)NC(=O)[C@](C)(CC(C)C)NC(=O)[C@@H](NC(=O)C(C)(C)NC(=O)[C@H](Cc1ccncc1)NC(=O)[C@H](CC(=O)O)NC(=O)[C@H](CO)NC(=O)[C@@H](NC(=O)[C@](C)(Cc1ccccc1F)NC(=O)[C@@H](NC(=O)CNC(=O)[C@H](CCC(=O)O)NC(=O)C(C)(C)NC(=O)[C@@H](N)Cc1ccc(O)cc1)[C@@H](C)O)[C@@H](C)O)[C@@H](C)CC)[C@@H](C)CC)C(=O)N[C@@H](CCC(=O)O)C(=O)NCC(=O)NCC(=O)N1CCC[C@H]1C(=O)N[C@@H](CO)C(=O)N[C@@H](CO)C(=O)NCC(=O)N[C@@H](C)C(=O)N1CCC[C@H]1C(=O)N1CCC[C@H]1C(=O)N1CCC[C@H]1C(=O)N[C@@H](CO)C(N)=O` [Example 336], the EC50 is 0.338 nM at hGLP-1R (setting [1]); greater than 10100 nM at hGCGR (setting [2]); greater than 10100 nM at hGCGR (setting [3]); 0.0136 nM at hGIPR (setting [2]); 2.92 nM on hGIPR (setting [3]). Further, the Emax came out at 94.6% on hGIPR (HEK293, cAMP, 37° C., 0.1% bovine casein and 1.0% human serum albumin, percent of maximal response to GIP(1-42)NH2); 109% at hGIPR (setting [4]).
With `CC[C@H](C)[C@H](NC(=O)[C@H](CC(C)C)NC(=O)[C@](C)(Cc1ccc(O)cc1)NC(=O)[C@@H](CCC(=O)O)NC(=O)[C@@H](NC(=O)[C@H](Cc1ccccc1)NC(=O)[C@H](CCC(=O)O)NC(=O)C(C)(C)NC(=O)[C@H](CCC(N)=O)NC(=O)[C@H](C)NC(=O)[C@H](CCCCNC(=O)COCCOCCNC(=O)COCCOCCNC(=O)CC[C@H](NC(=O)CCCCCCCCCCCCC(=O)O)C(=O)O)NC(=O)[C@H](CCCN)NC(=O)[C@H](CC(=O)O)NC(=O)[C@H](CC(C)C)NC(=O)[C@](C)(CC(C)C)NC(=O)[C@@H](NC(=O)C(C)(C)NC(=O)[C@H](Cc1ccncc1)NC(=O)[C@H](CC(=O)O)NC(=O)[C@H](CO)NC(=O)[C@@H](NC(=O)[C@](C)(Cc1ccccc1F)NC(=O)[C@@H](NC(=O)CNC(=O)[C@H](CCC(=O)O)NC(=O)C(C)(C)NC(=O)[C@@H](N)Cc1ccc(O)cc1)[C@@H](C)O)[C@@H](C)O)[C@@H](C)CC)[C@@H](C)CC)C(=O)N[C@@H](CCC(=O)O)C(=O)NCC(=O)NCC(=O)N[C@@H](CCCCNC(=O)COCCOCCNC(=O)COCCOCCNC(=O)CC[C@H](NC(=O)CCCCCCCCCCCCC(=O)O)C(=O)O)C(=O)N[C@@H](CO)C(=O)N[C@@H](CO)C(=O)NCC(=O)N[C@@H](C)C(=O)N1CCC[C@H]1C(=O)N1CCC[C@H]1C(=O)N1CCC[C@H]1C(=O)N[C@@H](CO)C(N)=O` [Example 89], the EC50 was 1.03 nM on hGLP-1R (setting [5]), greater than 9950 nM on hGCGR (setting [6]), greater than 9950 nM on hGCGR (setting [7]) and 0.0301 nM at hGIPR (setting [7]). For the same molecule, the maximal response (Emax) is 94.2% on hGIPR (setting [8]) and 88.9 ± 3.76% on hGIPR (HEK293, percent of maximal response to GIP(1-42)NH2, 37° C., 0.1% bovine casein, arithmetic mean).
Turning to `CCCCCCCCCCCC(=O)N[C@@H](CCC(=O)NCCOCCOCC(=O)NCCOCCOCC(=O)NCCCC[C@H](NC(=O)[C@H](CCCN)NC(=O)[C@H](CC(=O)O)NC(=O)[C@H](CC(C)C)NC(=O)[C@](C)(CC(C)C)NC(=O)[C@@H](NC(=O)[C@H](CO)NC(=O)[C@H](CCCCNC(=O)COCCOCCNC(=O)COCCOCCNC(=O)CC[C@H](NC(=O)CCCCCCCCCCC)C(=O)O)NC(=O)[C@H](CC(=O)O)NC(=O)[C@H](CO)NC(=O)[C@@H](NC(=O)[C@](C)(Cc1ccccc1F)NC(=O)[C@@H](NC(=O)CNC(=O)[C@H](CCC(=O)O)NC(=O)C(C)(C)NC(=O)[C@@H](N)Cc1ccc(O)cc1)[C@@H](C)O)[C@@H](C)O)[C@@H](C)CC)C(=O)N[C@@H](C)C(=O)N[C@@H](CCC(N)=O)C(=O)NC(C)(C)C(=O)N[C@@H](CCC(=O)O)C(=O)N[C@@H](Cc1ccccc1)C(=O)N[C@H](C(=O)N[C@H](CCC(=O)O)C(=O)N[C@@](C)(Cc1ccc(O)cc1)C(=O)N[C@@H](CC(C)C)C(=O)N[C@H](C(=O)N[C@@H](CCC(=O)O)C(=O)NCC(=O)NCC(N)=O)[C@@H](C)CC)[C@@H](C)CC)C(=O)O` [Example 294] (H-Y[Aib]EGT[αMePhe(2-F)]TSDK([AEEA-AEEA-γGlu-Lauroyl])SI[αMeL]LD[Orn]K([AEEA-AEEA-γGlu-Lauroyl])AQ[Aib]EFI[dE][αMeY]LIEGG-NH2), the concentration giving a half-maximal response (EC50) was 6.26 nM on hGLP-1R (setting [9]); 0.0665 nM at hGLP-1R (setting [1]); greater than 9950 nM at hGCGR (setting [6]); greater than 9950 nM at hGCGR (setting [2]); 0.833 nM on hGIPR (setting [6]); 0.00615 nM at hGIPR (setting [2]). The Emax at hGIPR (setting [4]) was determined as 105%.
In the case of `CC[C@H](C)[C@H](NC(=O)[C@H](CC(C)C)NC(=O)[C@](C)(Cc1ccc(O)cc1)NC(=O)[C@@H](CCC(=O)O)NC(=O)[C@@H](NC(=O)[C@H](Cc1ccccc1)NC(=O)[C@H](CCCCNC(=O)COCCOCCNC(=O)COCCOCCNC(=O)CCCCCCCCCCCCC(=O)O)NC(=O)C(C)(C)NC(=O)[C@H](CCC(N)=O)NC(=O)[C@H](C)NC(=O)[C@H](CCCCNC(=O)COCCOCCNC(=O)COCCOCCNC(=O)CCCCCCCCCCCCC(=O)O)NC(=O)[C@H](CCCN)NC(=O)[C@H](CC(=O)O)NC(=O)[C@H](CC(C)C)NC(=O)[C@](C)(CC(C)C)NC(=O)[C@@H](NC(=O)[C@H](CO)NC(=O)[C@H](Cc1ccncc1)NC(=O)[C@H](CC(=O)O)NC(=O)[C@H](CO)NC(=O)[C@@H](NC(=O)[C@](C)(Cc1ccccc1F)NC(=O)[C@@H](NC(=O)CNC(=O)[C@H](CCC(=O)O)NC(=O)C(C)(C)NC(=O)[C@@H](N)Cc1ccc(O)cc1)[C@@H](C)O)[C@@H](C)O)[C@@H](C)CC)[C@@H](C)CC)C(=O)N[C@@H](CCC(=O)O)C(=O)NCC(=O)NCC(=O)N1CCC[C@H]1C(=O)N[C@@H](CO)C(=O)N[C@@H](CO)C(=O)NCC(=O)N[C@@H](C)C(=O)N1CCC[C@H]1C(=O)N1CCC[C@H]1C(=O)N1CCC[C@H]1C(=O)N[C@@H](CO)C(N)=O` [Example 78], the EC50 is 4.29 nM on hGLP-1R (setting [9]); 0.286 nM on hGLP-1R (setting [5]); greater than 9950 nM on hGCGR (setting [6]); greater than 9950 nM on hGCGR (setting [7]); 0.242 nM on hGIPR (setting [6]); 0.0145 nM on hGIPR (setting [7]). The Emax on hGIPR (setting [8]) stood at 89.7 ± 2.65%.
